According to US20010011063A1, “Substituted 2,4-diamino-1,3,5-triazines, processes for their preparation and their use as herbicides and plant growth regulators” (priority 1999, published 2001):

Tests used:
Format in all cases: in vivo
[1] = system: Sinapis alba, Echinochloa crus-galli, Lolium multiforum, Stellaria media, Cyperus iria, Amaranthus retroflexus, Settaria viridis and Avena sativa; assay: Post-emergence effect on weeds (greenhouse pot test); conditions: application rate of 1 kg or less of active substance per hectare; treated at the three-leaf stage; scored visually after about 3 to 4 weeks vs untreated controls
Procedure: Seeds or rhizome pieces of mono- and dicotyledonous weeds are placed in sandy loam soil in plastic pots, covered with soil and grown in a greenhouse under good growth conditions. Three weeks after sowing, the test plants are treated at the three-leaf stage. The compounds according to the invention, formulated as wettable powders or emulsion concentrates, are sprayed, at various dosages, onto the green parts of the plants at an application rate of 600 to 800 l of water/ha (converted). After the test plants had remained in the greenhouse for about 3 to 4 weeks under optimum growth conditions, the effect of the preparations is scored visually by comparison with untreated controls. The agents according to the invention also have good herbicidal activity post-emergence against a broad spectrum of economically important weed grasses and broad-leaved weeds.

[2] = system: Stellaria media, Lolium multiflorum, Amaranthus retroflexus, Sinapis alba, Avena sativa and Settaria viridis; assay: Pre-emergence effect on weeds (greenhouse pot test); conditions: application rate of 1 kg or less of active substance per hectare; visually scored after 3 to 4 weeks by comparison with untreated controls
Description: Seeds or rhizome pieces of mono and dicotyledonous weed plants are placed in sandy loam soil in plastic pots and covered with soil. The compounds according to the invention which are formulated in the form of wettable powders or emulsion concentrates are then applied to the soil cover in the form of aqueous suspensions or emulsions at an application rate of 600 to 800 l of water/ha (converted), in various dosages.

[3] = system: Cyperus monti, Echinochloa crus-galli and Sagitaria pygmaea; assay: Action on harmful plants in rice (paddy rice conditions); conditions: poured into the dammed water, visual scoring about three weeks after application; also: test concentration or dose not given here
Description: Transplanted and sown rice and also typical rice weeds (gramineous and broad-leaved) are cultivated in closed plastic pots in a greenhouse to the three-leaf stage (Echinochloa crus-galli 1.5-leaf) under paddy rice conditions (height of water: 2-3 cm). This is followed by treatment with the compounds according to the invention. For this purpose, the formulated active compounds are suspended, dissolved or emulsified in water and applied by pouring them into the dammed water around the test plants in different dosages.

CC(C)(F)c1nc(N)nc(NC(CCCc2cccc(Cl)c2)C2CCC2)n1 (stereo not drawn) [Example 4-68]
very good herbicidal activity: herbicidal activity post-emergence against harmful plants [1] | herbicidal activity pre-emergence against harmful plants [2] | herbicidal activity against harmful plants which are typical for rice crops [3]

COc1cccc(CCCC(Nc2nc(N)nc(C(C)C)n2)C2CCC2)c1 (stereo not drawn) [Example 4-75]
very good herbicidal activity: herbicidal activity post-emergence against harmful plants [1] | herbicidal activity pre-emergence against harmful plants [2] | herbicidal activity against harmful plants which are typical for rice crops [3]

CCc1nc(N)nc(NC(CCCc2ccccc2)C2CC2)n1 (stereo not drawn) [Example 4-9]
very good herbicidal activity: herbicidal activity post-emergence against harmful plants [1] | herbicidal activity pre-emergence against harmful plants [2] | herbicidal activity against harmful plants which are typical for rice crops [3]

CC(C)(F)c1nc(N)nc(N[C@@H](CCCc2ccccc2)C2CC2)n1 [Example 3-12]
very good herbicidal activity: herbicidal activity post-emergence against harmful plants [1] | herbicidal activity pre-emergence against harmful plants [2] | herbicidal activity against harmful plants which are typical for rice crops [3]

CC(C)(F)c1nc(N)nc(N[C@H](CCc2cccc(Cl)c2)C2CCC2)n1 [Example 2-24]
very good herbicidal activity: herbicidal activity post-emergence against harmful plants [1] | herbicidal activity pre-emergence against harmful plants [2] | herbicidal activity against harmful plants which are typical for rice crops [3]

CC(C)(F)c1nc(N)nc(NC(Cc2ccccc2)CC2CC2)n1 (stereo not drawn) [Example 5-2]
very good herbicidal activity: herbicidal activity post-emergence against harmful plants [1] | herbicidal activity pre-emergence against harmful plants [2] | herbicidal activity against harmful plants which are typical for rice crops [3]

CC(C)(F)c1nc(N)nc(NC(CCCc2ccccc2)C2CCC2)n1 (stereo not drawn) [Example 4-64]
very good herbicidal activity: herbicidal activity post-emergence against harmful plants [1] | herbicidal activity pre-emergence against harmful plants [2] | herbicidal activity against harmful plants which are typical for rice crops [3]

CC(C)(F)c1nc(N)nc(N[C@@H](CCCc2cccc(Cl)c2)C2CC2)n1 [Example 3-18]
very good herbicidal activity: herbicidal activity post-emergence against harmful plants [1] | herbicidal activity pre-emergence against harmful plants [2] | herbicidal activity against harmful plants which are typical for rice crops [3]

CC(C)(F)c1nc(N)nc(N[C@H](Cc2ccccc2)CC2CC2)n1 [Example 6-2]
very good herbicidal activity: herbicidal activity post-emergence against harmful plants [1] | herbicidal activity pre-emergence against harmful plants [2] | herbicidal activity against harmful plants which are typical for rice crops [3]

Nc1nc(N[C@@H](CCCc2ccc(Cl)cc2Cl)C2CC2)nc(C(F)(F)F)n1 [Example 3-6]
very good herbicidal activity: herbicidal activity post-emergence against harmful plants [1] | herbicidal activity pre-emergence against harmful plants [2] | herbicidal activity against harmful plants which are typical for rice crops [3]

Cc1nc(N)nc(N[C@@H](CCc2ccccc2)C2CCC2)n1 [Example 1-16]
very good herbicidal activity: herbicidal activity post-emergence against harmful plants [1] | herbicidal activity pre-emergence against harmful plants [2] | herbicidal activity against harmful plants which are typical for rice crops [3]

CC(C)c1nc(N)nc(N[C@@H](CCCc2ccccc2)C2CC2)n1 [Example 3-11]
very good herbicidal activity: herbicidal activity post-emergence against harmful plants [1] | herbicidal activity pre-emergence against harmful plants [2] | herbicidal activity against harmful plants which are typical for rice crops [3]

CC(C)(F)c1nc(N)nc(N[C@H](CCCc2ccccc2)C2CC2)n1 [Example 4-12, 2-Amino-4-(1-fluoro-1-methylethyl)-6-[(1 R)4-phenyl-1-cyclopropylbutylamino]-1,3,5-triazine]
very good herbicidal activity: herbicidal activity post-emergence against harmful plants [1] | herbicidal activity pre-emergence against harmful plants [2] | herbicidal activity against harmful plants which are typical for rice crops [3]

Cc1cccc(CCCC(Nc2nc(N)nc(C(C)C)n2)C2CCC2)c1 (stereo not drawn) [Example 3-71]
very good herbicidal activity: herbicidal activity post-emergence against harmful plants [1] | herbicidal activity pre-emergence against harmful plants [2] | herbicidal activity against harmful plants which are typical for rice crops [3]

Cc1cccc(CCCC(Nc2nc(N)nc(C(C)(C)F)n2)C2CCC2)c1 (stereo not drawn) [Example 3-72]
very good herbicidal activity: herbicidal activity post-emergence against harmful plants [1] | herbicidal activity pre-emergence against harmful plants [2] | herbicidal activity against harmful plants which are typical for rice crops [3]

CC(C)c1nc(N)nc(NC(CCc2ccccc2)CC2CC2(F)F)n1 (mixture of isomers) [Example 1-158]
very good herbicidal activity: herbicidal activity post-emergence against harmful plants [1] | herbicidal activity pre-emergence against harmful plants [2] | herbicidal activity against harmful plants which are typical for rice crops [3]

CC(C)(F)c1nc(N)nc(NC(CCCCc2ccccc2)C2CCC2)n1 (stereo not drawn) [Example 5-47]
very good herbicidal activity: herbicidal activity post-emergence against harmful plants [1] | herbicidal activity pre-emergence against harmful plants [2] | herbicidal activity against harmful plants which are typical for rice crops [3]

CC(C)(F)c1nc(N)nc(N[C@@H](CCc2cccc(Cl)c2)C2CCC2)n1 [Example 1-24]
very good herbicidal activity: herbicidal activity post-emergence against harmful plants [1] | herbicidal activity pre-emergence against harmful plants [2] | herbicidal activity against harmful plants which are typical for rice crops [3]

COc1cccc(CCCC(Nc2nc(N)nc(C(C)C)n2)C2CCC2)c1 (stereo not drawn) [Example 3-75]
very good herbicidal activity: herbicidal activity post-emergence against harmful plants [1] | herbicidal activity pre-emergence against harmful plants [2] | herbicidal activity against harmful plants which are typical for rice crops [3]

CC(C)Cc1nc(N)nc(NC(CCCc2ccccc2)C2CCC2)n1 (stereo not drawn) [Example 4-59]
very good herbicidal activity: herbicidal activity post-emergence against harmful plants [1] | herbicidal activity pre-emergence against harmful plants [2] | herbicidal activity against harmful plants which are typical for rice crops [3]

CC(C)c1nc(N)nc(N[C@H](CCc2ccccc2)C2CCC2)n1 [Example 2-14]
very good herbicidal activity: herbicidal activity post-emergence against harmful plants [1] | herbicidal activity pre-emergence against harmful plants [2] | herbicidal activity against harmful plants which are typical for rice crops [3]

COc1cccc(CCCC(Nc2nc(N)nc(C(C)(C)F)n2)C2CCC2)c1 (stereo not drawn) [Example 4-76]
very good herbicidal activity: herbicidal activity post-emergence against harmful plants [1] | herbicidal activity pre-emergence against harmful plants [2] | herbicidal activity against harmful plants which are typical for rice crops [3]

CC(C)(F)c1nc(N)nc(NC(CCCc2ccccc2)C2CCC2)n1 (stereo not drawn) [Example 3-64]
very good herbicidal activity: herbicidal activity post-emergence against harmful plants [1] | herbicidal activity pre-emergence against harmful plants [2] | herbicidal activity against harmful plants which are typical for rice crops [3]

CC(C)c1nc(N)nc(N[C@@H](CCCc2ccccc2)C2CCC2)n1 [Example 3-58]
very good herbicidal activity: herbicidal activity post-emergence against harmful plants [1] | herbicidal activity pre-emergence against harmful plants [2] | herbicidal activity against harmful plants which are typical for rice crops [3]

CC(C)c1nc(N)nc(NC(CCCc2cccc(Cl)c2)C2CCC2)n1 (stereo not drawn) [Example 3-67]
very good herbicidal activity: herbicidal activity post-emergence against harmful plants [1] | herbicidal activity pre-emergence against harmful plants [2] | herbicidal activity against harmful plants which are typical for rice crops [3]

Cc1cccc(CC[C@@H](Nc2nc(N)nc(C(C)C)n2)C2CCC2)c1 [Example 2-27]
very good herbicidal activity: herbicidal activity post-emergence against harmful plants [1] | herbicidal activity pre-emergence against harmful plants [2] | herbicidal activity against harmful plants which are typical for rice crops [3]

COc1cccc(CCCC(Nc2nc(N)nc(C(C)(C)F)n2)C2CCC2)c1 (stereo not drawn) [Example 3-76]
very good herbicidal activity: herbicidal activity post-emergence against harmful plants [1] | herbicidal activity pre-emergence against harmful plants [2] | herbicidal activity against harmful plants which are typical for rice crops [3]

CC(C)(F)c1nc(N)nc(N[C@H](CCCCc2ccccc2)C2CC2)n1 [Example 6-44]
very good herbicidal activity: herbicidal activity post-emergence against harmful plants [1] | herbicidal activity pre-emergence against harmful plants [2] | herbicidal activity against harmful plants which are typical for rice crops [3]
